Results reported in patent US8623869B2, “Compounds useful as inhibitors of ATR kinase” (Vertex Pharmaceuticals Incorporated, priority 2010, dated 2014).

Target: T1, full-length ATR (Homo sapiens, UniProt Q13535)
T1 construct: Assays were carried out at 25° C. in the presence of 5 nM full-length ATR
Test: ATR Inhibition Assay (radioactive-phosphate incorporation)
Assay type: biochemical
Conditions: Ki(app); 5 nM full-length ATR, 10 μM ATP, 800 μM target peptide, 25° C.
Experimental: Compounds were screened for their ability to inhibit ATR kinase using a radioactive-phosphate incorporation assay. Assays were carried out in a mixture of 50 mM Tris/HCl (pH 7.5), 10 mM MgCl2 and 1 mM DTT. Final substrate concentrations were 10 μM [γ-33P]ATP (3mCi 33P ATP/mmol ATP, Perkin Elmer) and 800 μM target peptide (ASELPASQPQPFSAKKK).
Assays were carried out at 25° C. in the presence of 5 nM full-length ATR. An assay stock buffer solution was prepared containing all of the reagents listed above, with the exception of ATP and the test compound of interest. 13.5 μL of the stock solution was placed in a 96 well plate followed by addition of 2 μL of DMSO stock containing serial dilutions of the test compound (typically starting from a final concentration of 15 μM with 3-fold serial dilutions) in duplicate (final DMSO concentration 7%). The plate was pre-incubated for 10 minutes at 25° C. and the reaction initiated by addition of 15 μL [γ-33P]ATP (final concentration 10 μM).
The reaction was stopped after […] by the addition of 30 μL 0.1M phosphoric acid containing 2 mM ATP. A multiscreen phosphocellulose filter 96-well plate (Millipore, Cat no. MAPHN0B50) was pretreated with 100 μL 0.2M phosphoric acid prior to the addition of 45 μL of the stopped assay mixture. The plate was washed with 5×200 μL 0.2M phosphoric acid. After drying, 100 μL Optiphase ‘SuperMix’ liquid scintillation cocktail (Perkin Elmer) was added to the well prior to scintillation counting (1450 Microbeta Liquid Scintillation Counter, Wallac).
After removing mean background values for all of the data points, Ki(app) data were calculated from non-linear regression analysis of the initial rate data using the Prism software package (GraphPad Prism version 3.0cx for Macintosh, GraphPad Software, San Diego Calif., USA).

T1 sequence (Q13535 whole entry): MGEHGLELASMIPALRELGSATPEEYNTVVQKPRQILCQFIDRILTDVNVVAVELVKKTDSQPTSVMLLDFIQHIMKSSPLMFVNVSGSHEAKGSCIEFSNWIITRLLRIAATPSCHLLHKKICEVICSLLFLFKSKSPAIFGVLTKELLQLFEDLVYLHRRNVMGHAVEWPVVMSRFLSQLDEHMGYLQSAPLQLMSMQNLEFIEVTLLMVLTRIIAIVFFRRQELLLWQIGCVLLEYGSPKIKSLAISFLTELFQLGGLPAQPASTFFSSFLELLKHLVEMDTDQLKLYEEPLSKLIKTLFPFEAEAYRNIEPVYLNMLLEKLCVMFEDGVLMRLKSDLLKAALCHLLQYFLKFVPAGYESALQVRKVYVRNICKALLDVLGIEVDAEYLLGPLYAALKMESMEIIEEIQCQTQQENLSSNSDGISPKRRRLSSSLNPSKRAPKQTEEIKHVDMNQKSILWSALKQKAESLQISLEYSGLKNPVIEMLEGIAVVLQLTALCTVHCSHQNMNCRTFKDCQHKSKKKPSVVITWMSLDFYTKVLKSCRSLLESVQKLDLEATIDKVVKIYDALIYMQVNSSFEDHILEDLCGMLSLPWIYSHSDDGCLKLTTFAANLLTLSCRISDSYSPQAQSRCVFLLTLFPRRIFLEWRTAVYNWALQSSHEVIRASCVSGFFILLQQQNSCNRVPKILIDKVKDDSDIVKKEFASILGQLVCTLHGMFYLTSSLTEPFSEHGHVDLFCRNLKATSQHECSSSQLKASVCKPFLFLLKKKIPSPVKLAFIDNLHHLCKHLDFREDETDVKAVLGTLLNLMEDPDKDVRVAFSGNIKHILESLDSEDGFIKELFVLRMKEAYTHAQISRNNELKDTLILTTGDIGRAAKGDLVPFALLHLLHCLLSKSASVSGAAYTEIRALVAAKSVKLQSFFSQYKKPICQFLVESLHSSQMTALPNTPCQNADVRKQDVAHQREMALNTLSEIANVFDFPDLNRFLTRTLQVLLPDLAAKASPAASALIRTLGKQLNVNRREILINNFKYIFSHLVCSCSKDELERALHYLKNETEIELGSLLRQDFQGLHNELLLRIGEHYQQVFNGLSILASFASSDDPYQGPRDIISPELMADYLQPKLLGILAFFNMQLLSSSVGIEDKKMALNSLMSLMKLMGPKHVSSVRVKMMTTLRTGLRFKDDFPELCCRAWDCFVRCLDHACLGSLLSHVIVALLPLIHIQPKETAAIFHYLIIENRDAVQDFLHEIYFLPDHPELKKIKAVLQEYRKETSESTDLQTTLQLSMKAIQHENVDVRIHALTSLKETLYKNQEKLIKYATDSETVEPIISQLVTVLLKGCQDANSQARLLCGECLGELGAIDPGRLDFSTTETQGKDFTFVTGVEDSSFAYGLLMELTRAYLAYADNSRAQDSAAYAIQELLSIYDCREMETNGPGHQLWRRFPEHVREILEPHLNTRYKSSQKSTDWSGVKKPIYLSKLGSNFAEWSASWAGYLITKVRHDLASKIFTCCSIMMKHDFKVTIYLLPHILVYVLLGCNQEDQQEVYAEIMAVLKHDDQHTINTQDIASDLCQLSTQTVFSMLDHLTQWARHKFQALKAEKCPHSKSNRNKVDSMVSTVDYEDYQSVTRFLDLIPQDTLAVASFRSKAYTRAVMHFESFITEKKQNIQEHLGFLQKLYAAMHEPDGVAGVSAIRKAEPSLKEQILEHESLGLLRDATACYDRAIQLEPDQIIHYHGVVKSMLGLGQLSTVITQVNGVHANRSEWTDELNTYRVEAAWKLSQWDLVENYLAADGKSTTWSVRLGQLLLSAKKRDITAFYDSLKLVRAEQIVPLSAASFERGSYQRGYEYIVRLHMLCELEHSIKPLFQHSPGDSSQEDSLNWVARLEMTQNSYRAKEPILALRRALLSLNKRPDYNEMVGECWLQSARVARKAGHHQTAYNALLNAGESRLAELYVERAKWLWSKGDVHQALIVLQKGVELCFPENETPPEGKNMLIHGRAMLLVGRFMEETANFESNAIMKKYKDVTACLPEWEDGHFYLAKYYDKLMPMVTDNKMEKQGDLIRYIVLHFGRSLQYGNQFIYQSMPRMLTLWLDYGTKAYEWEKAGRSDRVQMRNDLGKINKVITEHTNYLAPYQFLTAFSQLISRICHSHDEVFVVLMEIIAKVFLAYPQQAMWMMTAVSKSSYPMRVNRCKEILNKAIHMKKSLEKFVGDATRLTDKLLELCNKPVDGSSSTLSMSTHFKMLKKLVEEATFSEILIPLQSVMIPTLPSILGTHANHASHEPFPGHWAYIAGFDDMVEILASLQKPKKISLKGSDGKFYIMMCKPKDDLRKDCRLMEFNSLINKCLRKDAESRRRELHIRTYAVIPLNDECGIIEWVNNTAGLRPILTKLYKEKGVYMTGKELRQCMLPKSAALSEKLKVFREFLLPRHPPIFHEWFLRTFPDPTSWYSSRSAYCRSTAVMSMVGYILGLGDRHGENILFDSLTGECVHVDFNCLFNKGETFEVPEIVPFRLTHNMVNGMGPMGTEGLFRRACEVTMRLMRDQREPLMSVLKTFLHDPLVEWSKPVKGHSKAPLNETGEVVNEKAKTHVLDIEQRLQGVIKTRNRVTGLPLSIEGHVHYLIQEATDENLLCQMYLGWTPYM

| SMILES | Ki [nM] |
| --- | --- |
| CC(C)S(=O)(=O)c1ccc(-c2cnc3[nH]cc(-c4ccc(N(C)C)nc4)c3n2)cc1 [Compound I-37, 5-[2-(4-isopropylsulfonylphenyl)-5H-pyrrolo[2,3-b]pyrazin-7-yl]-N,N-dimethyl-pyridin-2-amine] | 10 to 50 |
| COc1ncc(-c2c[nH]c3ncc(-c4ccc(S(=O)(=O)C(C)C)cc4)nc23)cc1C [Compound I-38, 2-(4-isopropylsulfonylphenyl)-7-(6-methoxy-5-methyl-3-pyridyl)-5H-pyrrolo[2,3-b]pyrazine] | 10 to 50 |
| COc1cc(-c2c[nH]c3ncc(-c4ccc(S(=O)(=O)C(C)C)cc4)nc23)c(F)cn1 [Compound I-39, 7-(5-fluoro-2-methoxy-4-pyridyl)-2-(4-isopropylsulfonylphenyl)-5H-pyrrolo[2,3-b]pyrazine] | > 50 |
| CC(C)S(=O)(=O)c1ccc(-c2cnc3[nH]cc(-c4ccc5ncccc5c4)c3n2)cc1 [Compound I-40, 6-[2-(4-isopropylsulfonylphenyl)-5H-pyrrolo[2,3-b]pyrazin-7-yl]quinoline] | ≤ 10 |
| CC(C)S(=O)(=O)c1ccc(-c2cnc3[nH]cc(-c4cccc5cnccc45)c3n2)cc1 [Compound I-41, 5-[2-(4-isopropylsulfonylphenyl)-5H-pyrrolo[2,3-b]pyrazin-7-yl]isoquinoline] | > 50 |
| CC(C)S(=O)(=O)c1ccc(-c2cnc3[nH]cc(-c4cncc5ccccc45)c3n2)cc1 [Compound I-42, 4-[2-(4-isopropylsulfonylphenyl)-5H-pyrrolo[2,3-b]pyrazin-7-yl]isoquinoline] | 10 to 50 |
| CC(C)S(=O)(=O)c1ccc(-c2cnc3[nH]cc(-c4ccnc5ccccc45)c3n2)cc1 [Compound I-43, 4-[2-(4-isopropylsulfonylphenyl)-5H-pyrrolo[2,3-b]pyrazin-7-yl]quinoline] | > 50 |
| CC(C)S(=O)(=O)c1ccc(-c2cnc3[nH]cc(-c4csc5ccccc45)c3n2)cc1 [Compound I-44, 7-(benzothiophen-3-yl)-2-(4-isopropylsulfonylphenyl)-5H-pyrrolo[2,3-b]pyrazine] | > 50 |
| CC(C)S(=O)(=O)c1ccc(-c2cnc3[nH]cc(-c4cc5ccccc5s4)c3n2)cc1 [Compound I-45, 7-(benzothiophen-2-yl)-2-(4-isopropylsulfonylphenyl)-5H-pyrrolo[2,3-b]pyrazine] | 10 to 50 |
| COc1ncc(-c2c[nH]c3ncc(-c4ccc(S(=O)(=O)C(C)C)cc4)nc23)c(OC)n1 [Compound I-46, 7-(2,4-dimethoxypyrimidin-5-yl)-2-(4-isopropylsulfonylphenyl)-5H-pyrrolo[2,3-b]pyrazine] | > 50 |
| CC(C)S(=O)(=O)c1ccc(-c2cnc3[nH]cc(-c4cn[nH]c4)c3n2)cc1 [Compound I-47, 2-(4-(isopropylsulfonyl)phenyl)-7-(1H-pyrazol-4-yl)-5H-pyrrolo[2,3-b]pyrazine] | 10 to 50 |
| CC(C)S(=O)(=O)c1ccc(-c2cnc3[nH]cc(-c4cncc(S(C)(=O)=O)c4)c3n2)cc1 [Compound I-48, 2-(4-isopropylsulfonylphenyl)-7-(5-methylsulfonyl-3-pyridyl)-5H-pyrrolo[2,3-b]pyrazine] | 10 to 50 |
| CC(C)S(=O)(=O)c1ccc(-c2cnc3[nH]cc(-c4ccn(C)n4)c3n2)cc1 [Compound I-49, 2-(4-isopropylsulfonylphenyl)-7-(1-methylpyrazol-3-yl)-5H-pyrrolo[2,3-b]pyrazine] | 10 to 50 |
| CC(C)S(=O)(=O)c1ccc(-c2cnc3[nH]cc(-c4cnn(C)c4)c3n2)cc1 [Compound I-50, 2-(4-isopropylsulfonylphenyl)-7-(1-methylpyrazol-4-yl)-5H-pyrrolo[2,3-b]pyrazine] | > 50 |
| Cc1ccc(-c2c[nH]c3ncc(-c4ccc(S(=O)(=O)C(C)C)cc4)nc23)cn1 [Compound I-51, 2-(4-isopropylsulfonylphenyl)-7-(6-methyl-3-pyridyl)-5H-pyrrolo[2,3-b]pyrazine] | 10 to 50 |
| Cc1n[nH]c(C)c1-c1c[nH]c2ncc(-c3ccc(S(=O)(=O)C(C)C)cc3)nc12 [Compound I-52, 7-(3,5-dimethyl-1H-pyrazol-4-yl)-2-(4-isopropylsulfonylphenyl)-5H-pyrrolo[2,3-b]pyrazine] | > 50 |
| CC(C)S(=O)(=O)c1ccc(-c2cnc3[nH]cc(-c4ccc(N)nc4)c3n2)cc1 [Compound I-53, 5-[2-(4-isopropylsulfonylphenyl)-5H-pyrrolo[2,3-b]pyrazin-7-yl]pyridin-2-amine] | ≤ 10 |
| CC(C)S(=O)(=O)c1ccc(-c2cnc3[nH]cc(-c4cc5cc(Br)ccc5s4)c3n2)cc1 [Compound I-54, 7-(5-bromobenzothiophen-2-yl)-2-(4-isopropylsulfonylphenyl)-5H-pyrrolo[2,3-b]pyrazine] | > 50 |
| CC(C)S(=O)(=O)c1ccc(-c2cnc3[nH]cc(-c4cc5cc(F)ccc5n4C(=O)OC(C)(C)C)c3n2)cc1 [Compound I-56, tert-butyl 5-fluoro-2-[2-(4-isopropylsulfonylphenyl)-5H-pyrrolo[2,3-b]pyrazin-7-yl]indole-1-carboxylate] | > 50 |
| COc1ccc2c(c1)cc(-c1c[nH]c3ncc(-c4ccc(S(=O)(=O)C(C)C)cc4)nc13)n2C(=O)OC(C)(C)C [Compound I-57, tert-butyl 2-[2-(4-isopropylsulfonylphenyl)-5H-pyrrolo[2,3-b]pyrazin-7-yl]-5-methoxy-indole-1-carboxylate] | > 50 |
| CC(C)S(=O)(=O)c1ccc(-c2cnc3[nH]cc(-c4cc5c(Cl)cccc5n4C(=O)OC(C)(C)C)c3n2)cc1 [Compound I-58, tert-butyl 4-chloro-2-[2-(4-isopropylsulfonylphenyl)-5H-pyrrolo[2,3-b]pyrazin-7-yl]indole-1-carboxylate] | > 50 |
| CC(C)S(=O)(=O)c1ccc(-c2cnc3[nH]cc(-c4cn(S(=O)(=O)c5ccccc5)c5ccccc45)c3n2)cc1 [Compound I-59, 7-[1-(benzenesulfonyl)indol-3-yl]-2-(4-isopropylsulfonylphenyl)-5H-pyrrolo[2,3-b]pyrazine] | > 50 |

Further lines, results first:

| Ki [nM] | SMILES |
| --- | --- |
| > 50 | CC(C)S(=O)(=O)c1ccc(-c2cnc3[nH]cc(-c4cccnc4NC(=O)C(C)(C)C)c3n2)cc1 [Compound I-60, N-[3-[2-(4-isopropylsulfonylphenyl)-5H-pyrrolo[2,3-b]pyrazin-7-yl]-2-pyridyl]2,2-dimethyl-propanamide] |
| > 50 | CC(C)S(=O)(=O)c1ccc(-c2cnc3[nH]cc(-c4cc5ccccc5n4C(=O)OC(C)(C)C)c3n2)cc1 [Compound I-61, tert-butyl 2-[2-(4-isopropylsulfonylphenyl)-5H-pyrrolo[2,3-b]pyrazin-7-yl]indole-1-carboxylate] |
| ≤ 10 | CC(C)S(=O)(=O)c1ccc(-c2cnc3[nH]cc(-c4ccc(C(=O)O)s4)c3n2)cc1 [Compound I-62, 5-[2-(4-isopropylsulfonylphenyl)-5H-pyrrolo[2,3-b]pyrazin-7-yl]thiophene-2-carboxylic acid] |
| 10 to 50 | CC(C)S(=O)(=O)c1ccc(-c2cnc3[nH]cc(-c4sccc4C(=O)O)c3n2)cc1 [Compound I-63, 2-[2-(4-isopropylsulfonylphenyl)-5H-pyrrolo[2,3-b]pyrazin-7-yl]thiophene-3-carboxylic acid] |
| ≤ 10 | CC(C)S(=O)(=O)c1ccc(-c2cnc3[nH]cc(-c4csc(C(=O)O)c4)c3n2)cc1 [Compound I-64, 4-[2-(4-isopropylsulfonylphenyl)-5H-pyrrolo[2,3-b]pyrazin-7-yl]thiophene-2-carboxylic acid] |
| ≤ 10 | CC(C)S(=O)(=O)c1ccc(-c2cnc3[nH]cc(-c4cncc(C(C)(C)O)c4)c3n2)cc1 [Compound I-66, 2-[5-[2-(4-isopropylsulfonylphenyl)-5H-pyrrolo[2,3-b]pyrazin-7-yl]-3-pyridyl]propan-2-ol] |
| > 50 | CC(C)S(=O)(=O)c1ccc(-c2cnc3[nH]cc(-c4ccc(-c5nnn[nH]5)cc4)c3n2)cc1 [Compound I-67, 2-(4-isopropylsulfonylphenyl)-7-[4-(1H-tetrazol-5-yl)phenyl]-5H-pyrrolo[2,3-b]pyrazine] |
| 10 to 50 | CC(C)S(=O)(=O)c1ccc(-c2cnc3[nH]cc(-c4cccc(-c5nnn[nH]5)c4)c3n2)cc1 [Compound I-68, 2-(4-isopropylsulfonylphenyl)-7-[3-(1H-tetrazol-5-yl)phenyl]-5H-pyrrolo[2,3-b]pyrazine] |
| ≤ 10 | CC(Oc1cc(-c2c[nH]c3ncc(-c4ccc(S(=O)(=O)C(C)C)cc4)nc23)sc1C(=O)O)c1ccccc1Cl (centres unmarked) [Compound I-69, 3-[1-(2-chlorophenyl)ethoxy]-5-[2-(4-isopropylsulfonylphenyl)-5H-pyrrolo[2,3-b]pyrazin-7-yl]thiophene-2-carboxylic acid] |
| ≤ 10 | CC(C)S(=O)(=O)c1ccc(-c2cnc3[nH]cc(-c4cc(O[C@H](C)c5ccccc5Cl)c(C(=O)O)s4)c3n2)cc1 [Compound I-70, 3-[(1R)-1-(2-chlorophenyl)ethoxy]-5-[2-(4-isopropylsulfonylphenyl)-5H-pyrrolo[2,3-b]pyrazin-7-yl]thiophene-2-carboxylic acid] |
